Assay results from patent US5637501A, “Apparatus for automatically testing the antibiotic sensitivity of a paraffinophilic microorganism” (Infectech, Inc., priority 1995, dated 1997).
Where a name gives a salt, the structure may show the parent alone. Read-outs that look alike come from different tables or passages of the source.

System: MAI
Test: antibiotic sensitivity (MIC) of MAI strains, paraffin slide culture and microliter assays
Format: cell-based, Mycobacterium avium-intracellulare
Design: key: NG: No Growth
Source text: The present invention has met the above-described need. In one embodiment, it provides a method of automatically testing the sensitivity of a paraffinophilic microorganism to different antimicrobial agents, such as antibiotics, and concentrations thereof, by providing a plurality of receptacles, each containing an amount of liquid medium, an antimicrobial agent to be tested and the microorganism to be tested. In each of the receptacles is placed a slide containing a paraffin source. The receptacles are then incubated, after which a light scatter sensing means automatically and sequentially monitors the extent of microorganism growth on the slides. The extent of colony growth is employed to determine which antimicrobial agent in which concentration is effective to resist growth of the microorganism. A preferred light scatter sensing means is a nephelometer.
Referring specifically to FIG. 1, there is shown a preferred embodiment of the present invention usable in a method of automatically testing the sensitivity of a pure culture of a microorganism to different antimicrobial agents and concentrations thereof. In this embodiment, a microorganism, which may have been previously speciated as by the technique taught in U.S. Pat. No. 5,153, 119, has been introduced into a plurality of receptacles, each containing an amount of liquid medium and antimicrobial agent to be tested. A paraffin slide is introduced into each of the receptacles which are subsequently incubated. The receptacles 2-22 (even numbers only) are fixedly secured to an elongated, substantially rigid movable carrier member 26, such that the receptacles 2-22 will be translated therewith in the direction shown by the arrow A. The carrier member 26 may be made of any suitable material, such as aluminum, steel, stainless steel, or resinous plastic, for example. The receptacles 2-22, respectively, contain slides 32-52 (even numbers only). The slides 32-52 are fixedly secured, respectively, within receptacles 2-22 which may test tubes. The slides 32-52 are generally oriented so as to have their elongated direction aligned with the direction of travel of the carrier 26. As the carrier moves in the direction of arrow A, the slides 2-22 will sequentially be positioned in operative relationship to the light scatter sensing means which consists of light source 60, which directs a light beam toward light detector 62. In the preferred embodiment, a beam of visible light from light source 60 will impinge upon slide 32, with the growth of the microorganism thereon producing a corresponding scatter of light which is received by the light receiving sensor 62 and converts the received light into an appropriate output electrical signal which will be delivered to computer means 64. The computer means 64, in turn, provides output to output means 66, which may conveniently be a display, such as a cathode ray tube or a hard copy printer, for example. The degree of light scatter will be related to the extent of microorganism growth with light scatter increasing as growth on the slide increases.
The computer means 64 may be a general purpose digital microprocessor. It may be programmed in a manner readily known to those skilled in the art to sequentially compare the light scatter value of each slide 32-52 with that of a control slide and to provide an output to output means 66, such as a visual screen display or hard copy, with or without prior enhancement, which indicates the difference between the control slide and the specific slides containing the same pure culture of a paraffinophilic microorganism, but exposed to different concentrations of different or the same antimicrobial agents, such an antibiotics. In this manner, there is provided the minimal concentration level of a specific antimicrobial agent that must be used to control growth of the microorganism. Also, the minimum bactericidal concentration may be determined. […]

O=C(O)c1cn(C2CC2)c2cc(N3CCNCC3)c(F)cc2c1=O [ciprofloxacin-HCl]
Days to Confluency (Exp. Series II, strain 1): 9 days | Days to Confluency (Exp. Series II, strain 2): 9 days | Days to Confluency (Exp. Series II, strain 3): NG | MIC (Exp. Series II, strain 3): NG | Days to Confluency (Exp. Series II, strain 4): 10 days | Days to Confluency (Exp. Series II, strain 5): 9 days | Days to Confluency (Exp. Series II, strain 6): 10 days | Days to Confluency (Exp. Series II, strain 7): 10 days | Days to Confluency (Exp. Series II, strain 8): 9 days | Days to Confluency (Exp. Series II, strain 9): 10 days | Days to Confluency (Exp. Series II, strain 10): 7 days | Days to Confluency (Exp. Series II, strain 11): 7 days | Days to Confluency (Exp. Series II, strain 12): 7 days | Days to Confluency (Exp. Series II, strain 13): 8 days | Days to Confluency (Exp. Series II, strain 14): 7 days | Days to Confluency (Exp. Series II, strain 15): 7 days | Days to Confluency (Exp. Series II, strain 16): 7 days | Days to Confluency (Exp. Series III, strain 1): 7 days | Days to Confluency (Exp. Series III, strain 2): 8 days | Days to Confluency (Exp. Series III, strain 3): 8 days | Days to Confluency (Exp. Series III, strain 4): 9 days | Days to Confluency (Exp. Series III, strain 5): 8 days | Days to Confluency (Exp. Series III, strain 6): 9 days | Days to Confluency (Exp. Series III, strain 7): 8 days | Days to Confluency (Exp. Series III, strain 8): 8 days | Days to Confluency (Exp. Series III, strain 9): 8 days | Days to Confluency (Exp. Series III, strain 10): 6 days | Days to Confluency (Exp. Series III, strain 11): 6 days | Days to Confluency (Exp. Series III, strain 12): 6 days | Days to Confluency (Exp. Series III, strain 13): 7 days | Days to Confluency (Exp. Series III, strain 14): 7 days | Days to Confluency (Exp. Series III, strain 15): 7 days | Days to Confluency (Exp. Series III, strain 16): 6 days | MIC (Mycobacterium avium-intracellulare, Exp. Series II, strain 1, read-out: MIC): 3.6 µg/mL | MIC (Mycobacterium avium-intracellulare, Exp. Series II, strain 2, read-out: MIC): 18.2 µg/mL | MIC (Mycobacterium avium-intracellulare, Exp. Series II, strain 4, read-out: MIC): 3.6 µg/mL | MIC (Mycobacterium avium-intracellulare, Exp. Series II, strain 5, read-out: MIC): 7.3 µg/mL | MIC (Mycobacterium avium-intracellulare, Exp. Series II, strain 6, read-out: MIC): 3.6 µg/mL | MIC (Mycobacterium avium-intracellulare, Exp. Series II, strain 7, read-out: MIC): 3.6 µg/mL | MIC (Mycobacterium avium-intracellulare, Exp. Series II, strain 8, read-out: MIC): 3.6 µg/mL | MIC (Mycobacterium avium-intracellulare, Exp. Series II, strain 9, read-out: MIC): 3.6 µg/mL | MIC (Mycobacterium avium-intracellulare, Exp. Series II, strain 10, read-out: MIC): 14.5 µg/mL | MIC (Mycobacterium avium-intracellulare, Exp. Series II, strain 11, read-out: MIC): 7.3 µg/mL | MIC (Mycobacterium avium-intracellulare, Exp. Series II, strain 12, read-out: MIC): 10.9 µg/mL | MIC (Mycobacterium avium-intracellulare, Exp. Series II, strain 13, read-out: MIC): 18.2 µg/mL | MIC (Mycobacterium avium-intracellulare, Exp. Series II, strain 14, read-out: MIC): 18.2 µg/mL | MIC (Mycobacterium avium-intracellulare, Exp. Series II, strain 15, read-out: MIC): 7.3 µg/mL | MIC (Mycobacterium avium-intracellulare, Exp. Series II, strain 16, read-out: MIC): 7.3 µg/mL | MIC (Mycobacterium avium-intracellulare, Exp. Series III, strain 1, read-out: MIC): 3.6 µg/mL | MIC (Mycobacterium avium-intracellulare, Exp. Series III, strain 2, read-out: MIC): 14.5 µg/mL | MIC (Mycobacterium avium-intracellulare, Exp. Series III, strain 3, read-out: MIC): 3.6 µg/mL | MIC (Mycobacterium avium-intracellulare, Exp. Series III, strain 4, read-out: MIC): 3.6 µg/mL | MIC (Mycobacterium avium-intracellulare, Exp. Series III, strain 5, read-out: MIC): 7.3 µg/mL | MIC (Mycobacterium avium-intracellulare, Exp. Series III, strain 6, read-out: MIC): 7.3 µg/mL | MIC (Mycobacterium avium-intracellulare, Exp. Series III, strain 7, read-out: MIC): 7.3 µg/mL | MIC (Mycobacterium avium-intracellulare, Exp. Series III, strain 8, read-out: MIC): 3.6 µg/mL | MIC (Mycobacterium avium-intracellulare, Exp. Series III, strain 9, read-out: MIC): 3.6 µg/mL | MIC (Mycobacterium avium-intracellulare, Exp. Series III, strain 10, read-out: MIC): 14.5 µg/mL | MIC (Mycobacterium avium-intracellulare, Exp. Series III, strain 11, read-out: MIC): 7.3 µg/mL | MIC (Mycobacterium avium-intracellulare, Exp. Series III, strain 12, read-out: MIC): 7.3 µg/mL | MIC (Mycobacterium avium-intracellulare, Exp. Series III, strain 13, read-out: MIC): > 18.2 µg/mL | MIC (Mycobacterium avium-intracellulare, Exp. Series III, strain 14, read-out: MIC): 14.5 µg/mL | MIC (Mycobacterium avium-intracellulare, Exp. Series III, strain 15, read-out: MIC): 7.3 µg/mL | MIC (Mycobacterium avium-intracellulare, Exp. Series III, strain 16, read-out: MIC): 3.6 µg/mL
